Reference: US20200010482A1, “INHIBITORS OF BETA SECRETASE” (Janssen Pharmaceutica NV, priority 2017, published 2020)

Test system: brain levels of soluble Aβ42, Aβ40, Aβ38, and Aβ37
Assay: In vivo Aβ lowering, brain levels of soluble Aβ by MSD electrochemiluminescence
Design: species or system mouse
Details: 10 mg/kg s.c., 4 h after administration; untreated animals as control set at 100
Source text: To determine whether acute administration of an Aβ lowering agent would reduce Aβ levels in vivo, non-transgenic rodents, e.g. mice or rats were used. Animals treated with the Aβ lowering agent were examined and compared to those untreated or treated with vehicle and brain levels of soluble Aβ42, Aβ40, Aβ38, and Aβ37 were quantitated by Meso Scale Discovery's (MSD) electrochemiluminescence detection technology. Treatment periods varied from hours (h) to days and were adjusted based on the results of the Aβ lowering once a time course of onset of effect could be established.
A typical protocol for measuring Aβ lowering in vivo is shown but it is only one of many variations that could be used to optimize the levels of detectable Aβ. […] After 4 h, the animals were sacrificed and Aβ levels were analysed.
Blood was collected by decapitation and exsanguinations in EDTA-treated collection tubes. […] The left hemisphere was stored at −18° C. for quantitative analysis of test compound levels. […]
Mouse brains from non-transgenic animals were resuspended in 8 volumes of 0.4% DEA (diethylamine)/50 mM NaCl containing protease inhibitors (Roche-11873580001 or 04693159001) per gram of tissue, e.g. for 0.158 g brain, add 1.264 ml of 0.4% DEA. […] Nine parts of supernatant were neutralized with 1 part 0.5 M Tris-HCl pH 6.8 and used to quantify Aβ. […]

## COc1ncc(C#N)c2c1C[C@]1(c3ccccc3F)N=C(N)SC[C@@H]1C2 (racemic) [Compound 22]
  Aβ40 (% vs Ctrl)_Mean: 39 % vs Ctrl
  Aβ42 (% vs Ctrl)_Mean: 32 % vs Ctrl
